Laboratory results published in patent US7365066B2, “Pyrazolopyridine derivatives as pharmaceutical agents” (Eli Lilly and Company, priority 2002, dated 2008).
pIC50: −log10 of the molar value.

Experiments:
p38α/SAPK2α = molecular target: T1, p38α/SAPK2α (Homo sapiens, UniProt Q16539); test: p38α in vitro kinase assay; type: biochemical; conditions: 5 nM p38α, 62.5 uM EGFR substrate, 100 uM ATP, 30° C. for 40 min
T1 construct: purchased Upstate Biotechnology 14-251
Protocol: Active p38α/SAPK2α was purchased from Upstate Biotechnology (cat#14-251). A known p38α substrate from EGFR was used in the assay (Young, et al. (1997) JBC 272:12116-12121).
Reactions were performed in 1× kinase buffer (25 mM Tris-HCl pH 7.5, 5 mM β-glycerophosphate, 2 mM DTT, 0.1 mM Na3VO4, 10 mM MgCl2, 1 uM Microcystin) with 5 nM p38α, 62.5 uM substrate, 40 uM to 0.2 nM compound dilution series in 1×KB/16% DMSO (final 4% DMSO concentration). Reactions were started by addition of 100 uM ATP (final concentration) with 1 uCi ^33P-γ-ATP in 1×KB and incubated at 30° C. for 40 min. Reactions were stopped with H3PO4 and quantitated on Millipore PH phosphocellulose filter plates by liquid scintillation counting on a MicroBeta JET.

[1] = system: TGF-β dependent luciferase production (p3TP-Lux reporter, Mv1Lu C1 cells); test: Mv1Lu p3TP-Lux assay; type: cell-based; conditions: 10 pM TGF-β1, 16-20 hrs, read-out: IC50, inhibition of TGF-beta dependent luciferase production
Description: A stable Mv1Lu clone (C1) containing the p3TP-Lux reporter was created by standard transfection and puromycin selection protocols. This stable clone was used to screen the example compounds for their ability to inhibit TGF-β dependent luciferase production as briefly described below: • 1. Plated Mv1Lu C1 cells in Wallac™ Black Isoplates. • 2. Allowed cells to adhere overnight. • 3. Removed media and replaced with 0.5% FBS DMEM media. • 4. Added the compound dilution series in 0.5% FBS/DMEM containing 1% DMSO such that the final compound concentration ranged from 20 uM to 0.1 nM and the final DMSO concentration was 0.2%. • 5. Incubated at 37° C./5% CO2 for 2 hrs. • 6. Added 0.5% FBS/DMEM as control or TGF-β1 diluted. in 0.5% FBS/DMEM (final concentration of 10 pM) to the −/+TGF-β wells respectively. • 7. Incubated for 16-20 hrs. at 37° C./5% CO2. • 8. Removed media and rinsed 1× with PBS. • 9. Removed PBS and lysed the cells with 1× Passive. Lysis Buffer (Promega) at room temperature. • 10. Counted relative luciferase activity on the MicroBeta JET by injecting Luciferase Assay Reagent II (PROMEGA).
The use of the above assay in measuring TGF-β responsive activity is described in Wrana, et al. Cell 71: 1003-1014 (1992).

[2] = molecular target: T2, TGF-beta Type II Receptor Kinase (RII WT) (Homo sapiens, UniProt P37173); test: TGF-β Type II receptor (RII WT) in vitro kinase reaction; type: biochemical; conditions: RII WT kinase domain, 4 uM ATP, 30° C. for 40 min; read-out: IC50, inhibition of TGF-beta Type II Receptor Kinase
T2 construct: The 6×-HIS tagged cytoplasmic kinase domain of each receptor was expressed and purified from Sf9 insect cell lysates; 6xHis; made in house; host or cells: Sf9 insect cells
T2 sequence (P37173 188-567 limits assumed): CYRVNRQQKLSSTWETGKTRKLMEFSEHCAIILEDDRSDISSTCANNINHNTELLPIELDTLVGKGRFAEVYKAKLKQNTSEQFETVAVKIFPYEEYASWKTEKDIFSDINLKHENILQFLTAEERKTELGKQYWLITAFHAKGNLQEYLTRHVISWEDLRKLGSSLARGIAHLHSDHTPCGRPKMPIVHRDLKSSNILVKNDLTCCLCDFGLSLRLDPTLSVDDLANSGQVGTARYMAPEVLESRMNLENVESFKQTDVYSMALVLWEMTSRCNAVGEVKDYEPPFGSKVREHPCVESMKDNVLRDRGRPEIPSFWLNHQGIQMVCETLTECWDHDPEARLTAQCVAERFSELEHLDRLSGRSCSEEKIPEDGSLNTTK
Protocol: (§1) For TGF-β Type I (RIT204D) and Type II (RII WT) Receptor Kinases:
(§2) The 6×-HIS tagged cytoplasmic kinase domain of each receptor was expressed and purified from Sf9 insect cell lysates as briefly described below:
(§3) Cell pellets after 48-72 hrs of infection were lysed in lysis buffer (LB: 50 mM Tris pH 7.5, 150 mM NaCl, 50 mM NaF, 0.5% NP40 with freshly added 20 mM β-mercaptoethanol, 10 mM imidazole, 1 mM PMSF, 1×EDTA-free Complete Protease Inhibitor (Boehringer Mannheim).
(§4) Cell lysates were clarified by centrifugation and 0.45 uM filtered prior to purification by Ni/NTA affinity chromatography (Qiagen).
(§5) Equilibrate with 10 CV of LB, load sample, wash with 10 CV RIPA buffer (50 mM Tris pH 7.5, 150 mM NaCl, 1% NP40, 1 mM EDTA, 0.25% sodium deoxycholate, added fresh 20 mM β-mercaptoethanol, 1 mM PMSF), wash with 10 CV LB, wash with 10 CV 1× KB (50 mM Tris pH 7.5, 150 mM NaCl, 4 mM MgCl2, 1 mM NaF, 2 mM βmercaptoethanol), elute with a linear gradient of 1× KB containing 200 mM Imidazole.
(§6) Both enzymes were approximately 90% pure and had autophosphorylation activity.
(§7) Reactions: 170-200 nM enzyme in 1× KB, compound dilution series in 1× KB/16% DMSO (20 uM to […] final concentration with 4% DMSO final concentration), reactions started by adding ATP mix (4 uM ATP/1 uCi ^33P-γ-ATP final concentrations) in 1× KB.
(§8) Reactions were incubated at 30° C. for 1 hr RIT204D or 40 min for RII WT. Reactions were stopped and quantitated using standard TCA/BSA precipitation onto Millipore FB glass fiber filter plates and by liquid scintillation counting on a MicroBeta JET.

[3] = molecular target: T3, TGF-beta Type I Receptor Kinase (RIT204D) (Homo sapiens, UniProt P36897, T204D); test: TGF-β Type I receptor (RIT204D) in vitro kinase reaction; type: biochemical; conditions: RIT204D kinase domain, 4 uM ATP, 30° C. for 1 hr; read-out: IC50, inhibition of TGF-beta Type I Receptor Kinase
T3 construct: The 6×-HIS tagged cytoplasmic kinase domain of each receptor was expressed and purified from Sf9 insect cell lysates; 6xHis; made in house; host or cells: Sf9 insect cells
T3 sequence (P36897 148-503 T204D limits assumed): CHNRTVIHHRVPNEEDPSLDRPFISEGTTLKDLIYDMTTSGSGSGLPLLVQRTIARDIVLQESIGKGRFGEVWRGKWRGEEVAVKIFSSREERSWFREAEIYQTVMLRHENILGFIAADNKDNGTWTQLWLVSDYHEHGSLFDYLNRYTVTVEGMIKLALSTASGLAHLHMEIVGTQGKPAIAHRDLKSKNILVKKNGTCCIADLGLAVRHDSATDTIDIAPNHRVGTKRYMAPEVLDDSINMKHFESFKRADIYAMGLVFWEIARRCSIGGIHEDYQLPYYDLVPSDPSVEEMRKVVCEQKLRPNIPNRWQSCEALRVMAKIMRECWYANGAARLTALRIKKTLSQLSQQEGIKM
Protocol: as §1, §2, §3, §4, §5, §6, §7, §8

T1 sequence (Q16539 whole entry): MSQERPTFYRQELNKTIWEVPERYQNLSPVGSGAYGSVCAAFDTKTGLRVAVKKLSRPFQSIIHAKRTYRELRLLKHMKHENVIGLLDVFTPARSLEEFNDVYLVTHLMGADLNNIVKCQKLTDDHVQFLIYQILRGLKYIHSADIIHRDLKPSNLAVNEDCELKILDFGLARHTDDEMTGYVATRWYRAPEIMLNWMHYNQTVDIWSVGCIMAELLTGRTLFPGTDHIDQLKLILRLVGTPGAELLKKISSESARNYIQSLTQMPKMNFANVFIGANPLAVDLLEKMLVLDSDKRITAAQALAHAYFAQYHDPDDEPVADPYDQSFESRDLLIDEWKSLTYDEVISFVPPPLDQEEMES

Row | pIC50 (p38α/SAPK2α) | pIC50 [1] | pIC50 [2] | pIC50 [3] | SMILES
1 | 6.63 |  |  |  | Cc1cccc(-c2nn3ccccc3c2-c2ccnc3cc(C(=O)NCCN(C)C)ccc23)n1 [Example 78, 4-[2-(6-Methyl-pyridin-2-yl)-pyrazolo[1,5-a]pyridin-3-yl]-quinoline-7-carboxylic acid(2-dimethylamino-ethyl)-amide]
2 | 6.41 |  |  |  | Cc1cccc(-c2nn3ccccc3c2-c2ccnc3cc(Cl)c(Cl)cc23)n1 [Example 45, 6,7-Dichloro-4-[2-(6-methyl-pyridin-2-yl)-pyrazolo[1,5-a]pyridin-3-yl]-quinoline]
3 |  | 6.87 | 6.42 | 6.99 | CCCCc1ccc(-c2nn3ccccc3c2-c2ccnc3ccccc23)nc1 [Example 56, 4-[2-(5-Butyl-pyridin-2-yl)-pyrazolo[1,5-a]pyridin-3-yl]-quinoline]
4 |  | 6.92 | 5.50 | 6.82 | CCc1cccc(-c2nn3ccccc3c2-c2ccnc3cc(Cl)c(Cl)cc23)n1 [Example 43, 6,7-Dichloro-4-[2-(6-ethyl-pyridin-2-yl)-pyrazolo[1,5-a]pyridin-3-yl]-quinoline]
5 | 7.11 |  |  |  | Cc1cccc(-c2nn3ccccc3c2-c2ccnc3cc(OCCCN(C)C)ccc23)n1 [Example 117, Dimethyl-(3-{4-[2-(6-methyl-pyridin-2-yl)-pyrazolo[1,5-a]pyridin-3-yl]-quinolin-7-yloxy}-propyl)-amine]
6 |  | 7.00 | 5.29 | 6.76 | CCc1cccc(-c2nn3ccccc3c2-c2ccc(F)c3ccccc23)n1 [Example 47, 2-(6-Ethyl-pyridin-2-yl)-3-(4-fluoro-naphthalen-1-yl)-pyrazolo[1,5-a]pyridine]
7 |  | 6.31 | 4.70 | 6.09 | c1ccc(-c2nn3ccccc3c2-c2ccncc2)nc1 [Example 53, 3-Pyridin-4-yl-2-pyridin-2-yl-pyrazolo[1,5-a]pyridine]
